In patent US20070092551A1, “Therapeutic agent” (TAKARA BIO INC., priority 2003, published 2007):
Where two headings read alike, the source gives them in different places.

Test system: 3T3-L1 cells
Test: Induction of adipocyte differentiation (amount of triglyceride biosynthesis)
Format: cell-based
Settings: Mus musculus
Procedure: Induction of adipocyte differentiation was carried out by partially modifying the above-mentioned method of Rubin C. S. et al. In addition, as a test compound, a compound prepared in Examples mentioned above or a commercially available compound was used. 3T3-L1 cells (ATCC CCL-92.1) were suspended in a 10% fetal bovine serum (manufactured by Bio Whittaker)-containing Dulbecco's modified Eagle's medium (manufactured by Sigma, D6046) containing 200 μM ascorbic acid so as to have a density of 4×10^3 cells/mL, and the suspension was put in each well of a 12-well microtiter plate in an amount of 2 ml per well. The cells were cultured at 37° C. for 7 days in the presence of 5% carbon dioxide gas. On the seventh day, the medium was exchanged with a 10% fetal bovine serum (manufactured by Bio Whittaker)-containing Dulbecco's modified Eagle's medium containing 200 μM ascorbic acid and 0.25 μM dexamethasone, and a test compound dissolved in dimethyl sulfoxide in a concentration shown in each of Tables 16 to 19 was added to each well. Here, there were set a group with addition of 4 μL of an aqueous solution containing 5 mg/mL insulin (manufactured by TAKARA BIO INC.) as a positive control, and a group with addition of dimethyl sulfoxide as a negative control. After 45 hours, the medium was exchanged with a 10% fetal bovine serum-containing Dulbecco's modified Eagle's medium containing 200 μM ascorbic acid. A test compound, 2 μL of an aqueous solution containing 5 mg/mL insulin as a positive control, or dimethyl sulfoxide as a negative control was put to each well in the same concentration. The cells were cultured for additional 7 days. In addition, the medium was exchanged on after 2 days and after 5 days, and at that time, a test compound, 2 μL of an aqueous solution containing 5 mg/mL insulin as a positive control, or dimethyl sulfoxide as a negative control was put to each well in the same concentration.
The amount of triglyceride in the adipocytes was determined as an index of induction of differentiation into mature adipocytes, and also, as the evaluation of insulin-mimetic action.
After the termination of the culture, the medium was removed, and the cells were washed twice with a phosphate buffered saline. One milliliter of a solvent of hexane:isopropanol=3:2 was added to the cells. The mixture was allowed to stand at room temperature for 30 minutes, and thereafter the supernatant was collected. The procedures were repeated again, and 2 mL of the supernatant was concentrated to dryness. The precipitate was dissolved in 100 μL of isopropanol, and the amount of triglyceride contained in 10 μL of the solution was determined using a triglyceride E-test (manufactured by Wako Pure Chemical Industries, Ltd., code 432-40201). In addition, all the determinations were carried out twice. The action for induction of differentiation was calculated by the following calculation formula, and shown by four ranks of +++, ++, + and +/−. • S: Amount of triglyceride in the presence of a test compound; • N: Amount of triglyceride in the negative control; and • P: Amount of triglyceride in the positive control; X=(S−N)/(P−N) (Judgment of Action for Induction of Differentiation)

[1] = 3T3-L1, 3 μM, X=(S−N)/(P−N) of amount of triglyceride, P=insulin positive control, read-out: Action for Induction of Differentiation
[2] = 3T3-L1, 10 μM, X=(S−N)/(P−N) of amount of triglyceride, P=insulin positive control, read-out: Action for Induction of Differentiation
[3] = 3T3-L1, 30 μM, X=(S−N)/(P−N) of amount of triglyceride, P=insulin positive control, read-out: Action for Induction of Differentiation
[4] = 3T3-L1, read-out: Action for Induction of Differentiation
[5] = 3T3-L1, 13 μM, X=(S−N)/(P−N) of amount of triglyceride, P=insulin positive control, read-out: Action for Induction of Differentiation

Compound | activation at 3 µM [1] | activation at 10 µM [2] | activation at 30 µM [3] | other results
C=C(C)C(O)CC/C(C)=C/Cc1c(OC)ccc(C(=O)/C=C/c2ccc(O)cc2)c1O (stereo not shown) [Xanthoangelol G] | 30 to 60% | > 100% | > 100% | –
COc1c2occc2cc2ccc(=O)oc12 [Xanthotoxin] | – | – | – | activation at 13 µM [4]: 30 to 60%; activation at 40 µM [4]: 60 to 100%
CC(=O)c1ccc(OCc2ccccc2)c(C/C=C(\C)CCC=C(C)C)c1O [Compound (C070), 2′-hydroxy-3′-geranyl-4′-benzyloxyacetophenone] | – | 30 to 60% | 60 to 100% | –
COc1ccc(C(=O)/C=C/c2ccc(O)cc2)c(O)c1C [Compound (C023), 4,2′-dihydroxy-3′-methyl-4′-methoxychalcone] | – | – | – | activation at 4 µM (3T3-L1, 4 μM, X=(S−N)/(P−N) of amount of triglyceride, P=insulin positive control, read-out: Action for Induction of Differentiation): 60 to 100%; activation at 13 µM [5]: 60 to 100%
CC(C)=CCC/C(C)=C/COc1ccc([C@@H]2CC(=O)c3c(O)cc(O)cc3O2)cc1 [4′-O-Geranylnaringenin] | 30 to 60% | 60 to 100% | > 100% | –
CC(C)=CCC/C(C)=C/Cc1c(O)ccc2c1OC(c1ccc(O)cc1)CC2=O (stereo not shown) [Prostratol F] | 60 to 100% | 60 to 100% | – | –
COc1ccc2c(c1C/C=C(\C)CCC=C(C)C)OC(c1ccc(O)cc1)CC2=O (stereo not shown) [Compound (C082), 8-geranyl-4′-hydroxy-7-methoxyflavanone] | – | 60 to 100% | – | –
COc1ccc2c(c1CC=C(C)C)OC(c1ccc(O)cc1)CC2=O (stereo not shown) [Compound (C034), 7-methoxy-8-prenyl-4′-hydroxyflavanone] | > 100% | > 100% | – | –
C/C(=C\Cc1c(O)ccc(C(=O)/C=C/c2ccc(O)cc2)c1O)CCC(O)C(C)(C)O (stereo not shown) [TB5, 1-[2,4-dihydroxy-3-(6,7-dihydroxy-3,7-dimethyl-2-octenyl)phenyl]-3-(4-hydroxyphenyl)-2-propen-1-one] | > 100% | > 100% | – | –
CC(C)=CCCC1(C)Oc2c(C(=O)/C=C/c3ccc(O)cc3)ccc(O)c2CC1O (stereo not shown) [TB2, 1-(3,4-dihydro-3,5-dihydroxy-2-(3-isohexenyl)-2-methyl-2H-benzopyran-8-yl)-3-(4-hydroxyphenyl)-2-propen-1-one] | > 100% | > 100% | – | –
CC(=O)c1ccc(O)c(C/C=C(\C)CCC=C(C)C)c1O [Compound (C036), 2′,4′-dihydroxy-3′-geranylacetophenone] | 15 to 30% | 60 to 100% | – | –
COc1ccc(C(C)=O)c(O)c1C [Compound (C022), 2′-hydroxy-3′-methyl-4′-methoxyacetophenone] | – | – | – | activation at 13 µM [5]: 15 to 30%
CC(=O)c1ccccc1OCc1ccccc1 [Compound (C065), 2′-benzyloxyacetophenone] | – | – | – | activation at 3 µM [4]: 30 to 60%; activation at 10 µM [4]: 60 to 100%; activation at 30 µM [4]: > 100%
CC(=O)c1ccc(O)c(Cc2ccccc2)c1O [Compound (C054), 2′,4′-dihydroxy-3′-benzylacetophenone] | 15 to 30% | 30 to 60% | – | –
CC12CCC(O)C(C)(C)C1Cc1c(O)ccc(C(=O)/C=C/c3ccc(O)cc3)c1O2 (stereo not shown) [TB1, 1-(5,6,7,8,8a,10a-hexahydro-1,7-dihydroxy-8,8,10a-trimethyl-9H-xanthen-4-yl)-3-(4-hydroxyphenyl)-2-propen-1-one] | > 100% | 60 to 100% | – | –
COc1ccc(C(=O)/C=C/c2ccc(O)cc2)c(O)c1C/C=C(\C)C/C=C/C(C)(C)O [Compound (C081), 1-[2-hydroxy-3-(7-hydroxy-3,7-dimethyl-2,5-octadienyl)-4-methoxyphenyl]-3-(4-hydroxyphenyl)-2-propen-1-one] | 60 to 100% | > 100% | > 100% | –
CC(=O)c1ccc(O)c(C/C=C(\C)CC/C=C(\C)CCC=C(C)C)c1O [Compound (C051), 2′,4′-dihydroxy-3′-farnesylacetophenone] | – | – | 60 to 100% | –
COc1ccc(C(=O)/C=C/C=C(C)C)c(O)c1CC=C(C)C [Compound (C069), 1-(2-hydroxy-3-prenyl-4-methoxyphenyl)-5-methyl-2,4-hexadien-1-one] | 30 to 60% | > 100% | > 100% | –
COc1ccc(C(=O)/C=C/c2ccc(O)cc2)c2c1CC(C(C)(C)O)O2 (stereo not shown) [TB4, 1-[2,3-dihydro-2-(1-hydroxy-1-methylethyl)-4-methoxy-benzofuran-7-yl]-3-(4-hydroxyphenyl)-2-propen-1-one] | 30 to 60% | 30 to 60% | – | –
COc1ccc(C=O)c(O)c1CC=C(C)C [Compound (C063), 2-hydroxy-3-prenyl-4-methoxybenzaldehyde] | 30 to 60% | 60 to 100% | > 100% | –
COc1ccc(C(=O)/C=C/c2cccs2)c(O)c1CC=C(C)C [Compound (C-THP), 1-(2-hydroxy-4-methoxy-3-prenylphenyl)-3-(2-thienyl)-2-propen-1-one] | 60 to 100% | > 100% | – | activation at 1 µM (3T3-L1, 1 μM, X=(S−N)/(P−N) of amount of triglyceride, P=insulin positive control, read-out: Action for Induction of Differentiation): 15 to 30%
